Test results as given in patent US20060128014A1, “Compositions and methods for culturing stem cells” (priority 2002, published 2006).
Where no end group is shown, it is not given here.

Legend:
adult neural stem cells = test: Intracellular ATP assay (ViaLight kit) on cultured adult neural stem cells; format: cell-based, mice; settings: for maximal amplitudes of responses: vanadate and EGF each added alone, compared
Protocol: Neurosphere cultures: The anterior lateral wall of the lateral ventricle of 5-6 week old mice was enzymatically dissociated in 0.8 mg/ml hyaluronidase and 0.5 mg/ml trypsin in DMEM containing 4.5 mg/ml glucose and 80 units/ml DNase at 37° C. for 20 min. The cells were gently triturated and mixed with three volumes of Neurosphere medium (DMEM/F12, B27 supplement, 125 mM HEPES pH7.4) containing 20 ng/ml EGF (unless otherwise stated), 100 units/ml penicillin and 100 _g/ml streptomycin. After passing through a 70 _m strainer, the cells were pelleted at 160×g for 5 min. The supernatant was subsequently removed and the cells resuspended in Neurosphere medium supplemented as above, plated out in culture dishes and incubated at 37° C. Neurospheres were ready to be split approximately 7 days after plating.
To split the neurospheres, they were collected by centrifugation at 160×g for 5 min. The conditioned supernatant (conditioned medium) was removed and saved. The neurospheres were resuspended in 0.5 ml Trypsin/EDTA in HBSS (1×), incubated at 37° C. for 2 min and triturated gently to aid dissociation. Following a further 3 min incubation at 37° C. and trituration, 3 volumes of ice cold NSPH-media-EGF were added to stop further trypsin activity. The cells were pelleted at 220×g for 4 min, and resuspended in a 1:1 mixture of fresh Neurosphere medium and conditioned medium. EGF was supplemented to 20 ng/ml and the culture plated out and incubated at 37° C.
Where stated, a minimal Neurosphere medium was used containing BIT supplement in place of B27 supplement.
Neurosphere assays: NSC, cultured as described above, from passage 2 were seeded in DMEM/F12 supplemented with B27 into a 96-well plate as single cells (10000 cells/well), to which agents were added at the concentrations indicated.
After 3 days of treatment, intracelluar ATP was measured using the ViaLight kit (BioWhittaker) according to the manufacturer's instructions.

[1] = test system: adult derived neural stem cells; test: Proliferation of adult derived neural stem cells by increased cAMP (unpublished results); format: cell-based; settings: increased levels of cAMP
[2] = cited from earlier work
hippocampal CA1 region = settings: cited from earlier work; for delayed neuronal death in the hippocampal CA1 region: transient forebrain ischemia
human neural stem cells = test: Neurosphere formation of human neural stem cells; format: cell-based
Protocol: Culture of human neural stem cells: Human neural stem cells were isolated and cultured under adherent conditions according to the protocol described in Palmer et al., 2001, Nature 411(6833):42-43, modified to exclude the additives PDGF and cystatinC and using B27 supplement instead of BIT. The cells were cultured for 10-16 passages in DMEM/F12 with B27-supplement and EGF (20 ng/ml) and FGF-2 (20 ng/ml). Cells were detached with Trypsin/EDTA, rinsed three times and then replated in suspension culture plastic wells in DMEM/F12 and B27-supplement for 24 h without growth factors. Thereafter factors (Vanadate, EGF or EGF+FGF2) were added for one day.

neural stem cells = test: Sphere formation in presence of vanadate and in combination with PACAP; format: cell-based; settings: DMEM/F12 with B27, after 7 days
Protocol: Cells were isolated as described (see section 5.5.1). Aliquots of 1 ml cell suspension per well equivalent to one brain per well were plated in DMEM/F12 supplemented with B27.
10 uM Vanadate or 10 uM Vanadate +300 nM PACAP was added to the cultures. Fresh substances were added every second day. After 7 days sphereformation was observed.

[3] = experimental animals; cited from earlier work

## EGF: epidermal growth factor, protein growth factor
Adult neural stem cells; FIGS. 2 and 3
  maximal amplitudes of responses: equal in size

## COc1ccc(C2CNC(=O)C2)cc1OC1CCCC1 (centres unmarked) [rolipram]
[1]
  proliferation: trigger proliferation

## [Na+].[O]=[V](=[O])[O-] [NaVO3]
[2]; oral
  most common adverse effect: mild gastrointestinal intolerance

## [Na+].[Na+].[Na+].[O]=[V]([O-])([O-])[O-] [sodium orthovanadate]
Hippocampal CA1 region
  delayed neuronal death in the hippocampal CA1 region: rescued cells from delayed neuronal death

## FGF-2: protein growth factor
Human neural stem cells; growth factors added for one day, FIG. 8b and 8c
  neurosphere formation with growth factors: reduced neurosphere formation

## PACAP: neuropeptide acting on cyclase activating GPCRs (HSDGIFTDSYSRYRKQMAVKKYLAAVLGKRYKQRVKNK; ends and bridges not checked; UniProt P18509 132-169, looked up)
[1]
  proliferation: trigger proliferation

## [O]=[V]([O-])([O-])[O-] [vanadate]
Adult neural stem cells; added alone, growth media supplemented with BIT or B27, 3 days of treatment, FIG. 1
  proliferative effect (intracellular ATP levels): concentration dependent proliferative effect
Adult neural stem cells; in addition to EGF (3 nM), FIG. 7
  ATP-levels with EGF and increasing concentrations of vanadate: not significantly altered
Adult neural stem cells; in the presence of EGF, supplement BIT or B27, FIGS. 2 and 3
  proliferative effect in combination with EGF: additive
Adult neural stem cells; in the presence of PACAP, supplement BIT or B27, FIGS. 4, 5
  proliferative effect in combination with PACAP: additive
Adult neural stem cells; FIGS. 2 and 3
  maximal amplitudes of responses: equal in size
Neural stem cells; 10 uM Vanadate + 300 nM PACAP, FIG. 6b
  sphere formation: Sphereforming capacity was noted
Neural stem cells; 10 uM Vanadate alone, FIG. 6a
  sphere formation: Sphereforming capacity was noted
Human neural stem cells; 10 uM, after 1 d, DMEM/F12 and B27-supplement, FIG. 8a
  sphere formation: formed numerous spheres
Human neural stem cells; 10 uM, after 1 d, FIG. 8a
  adherence of the spheres: virtually all spheres were free floating
[2]; humans
  tolerability in humans: tolerated
[2]; patients suffering from diabetes
  effect in patients suffering from diabetes: positive results
[3]
  blood glucose levels: reduces blood glucose levels
Hippocampal CA1 region; experimental animals
  neuroprotection: neuroprotective

## IGF-1: insulinlike growth factor-1
Hippocampal CA1 region
  delayed neuronal death in the hippocampal CA1 region: rescued cells from delayed neuronal death
